# Target: T1, human PAH with the R408W mutation (Homo sapiens, UniProt P00439, R408W)
# T1 construct: expressed in transfected cells
# T1 sequence (P00439 1-452 R408W): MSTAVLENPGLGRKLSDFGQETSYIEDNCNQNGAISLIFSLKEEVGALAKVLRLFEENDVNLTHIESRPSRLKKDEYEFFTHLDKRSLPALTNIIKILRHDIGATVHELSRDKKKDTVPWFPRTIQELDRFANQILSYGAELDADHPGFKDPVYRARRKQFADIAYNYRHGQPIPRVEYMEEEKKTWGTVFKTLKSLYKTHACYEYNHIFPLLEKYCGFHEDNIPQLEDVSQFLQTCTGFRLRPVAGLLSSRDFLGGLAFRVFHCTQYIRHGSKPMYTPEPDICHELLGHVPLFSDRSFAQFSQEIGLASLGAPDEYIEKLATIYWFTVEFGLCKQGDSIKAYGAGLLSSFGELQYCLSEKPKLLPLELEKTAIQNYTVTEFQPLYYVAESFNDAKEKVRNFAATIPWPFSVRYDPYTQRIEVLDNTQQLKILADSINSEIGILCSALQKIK
# Assay: Cell Based Phenylalanine Flux Assay;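 also: after compound treatment, cells received sepiapterin plus isotope-labelled Phenylalanine for 4 hours, then labelled Tyrosine in the medium was quantified, 10-point 2-fold dilution series run in duplicate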
# Settings: A375 cells expressing R408W PAH; 24 hrs with compound, then 20 µM sepiapterin and 800 µM 13C9,15N-Phenylalanine for 4 hours; 13C-Tyrosine by LC-MS; average where tested multiple times; read-out: AC50
row,AC50,Structure (SMILES)
1,1000 to 5000 nM,Cc1cccn2nc(C3c4nc[nH]c4CCN3C(=O)c3ccnn3C(F)F)cc12 (centres unmarked)
2,1000 to 5000 nM,Cn1nc(C(C)(C)C)cc1C(=O)N1CCc2[nH]cnc2C1c1cc2c(F)cccn2n1 (centres unmarked)
3,> 5000 nM,Cc1cccn2nc(C3c4nc[nH]c4CCN3C(=O)c3ccn(-c4ccccn4)n3)cc12 (centres unmarked)
4,> 5000 nM,COc1cccn2nc(C3c4nc[nH]c4CCN3C(=O)c3nnc(C)o3)cc12 (centres unmarked)
5,1000 to 5000 nM,CC(C)(F)c1nnc(N2CCc3[nH]cnc3C2c2cc3c(F)cccn3n2)o1 (centres unmarked)
6,> 5000 nM,COCCc1ccc2c(C(=O)N3CCc4[nH]cnc4C3c3cc4ccccn4n3)cnn2c1 (centres unmarked)
7,1000 to 5000 nM,FC(F)c1cccn2nc(C3c4nc[nH]c4CCN3c3nnc(-c4cccnc4)o3)cc12 (centres unmarked)
8,> 5000 nM,Cc1nc(C(=O)N2CCc3[nH]cnc3C2c2cc3cccc(Cl)n3n2)n(C)n1 (centres unmarked)
9,1000 to 5000 nM,Cc1nc(C(=O)N2CCc3[nH]cnc3C2c2cc3cccc(C(F)(F)F)n3n2)n(C)n1 (centres unmarked)

# Same assay, conditions: A375 cells expressing human PAH R408W; 24 hrs compound incubation; 13C-Tyrosine by LC-MS; average where tested multiple times; read-out: AC50
row,AC50,Structure (SMILES)
1,< 500 nM,"Cc1cccn2nc([C@@H]3c4nc[nH]c4CCN3c3nnc(C(C)(F)F)o3)cc12 [Example 2193, (S)-2-(1,1-difluoroethyl)-5-(4-(4-methylpyrazolo[1,5-a]pyridin-2-yl)-1,4,6,7-tetrahydro-5H-imidazo[4,5-c]pyridin-5-yl)-1,3,4-oxadiazole]"
2,500 to 1000 nM,"Cc1cccn2nc([C@@H]3c4nc[nH]c4CCN3C(=O)c3cnc(-c4cnn(C)c4)o3)cc12 [Example 1960, (S)-(2-(1-methyl-1H-pyrazol-4-yl)oxazol-5-yl)(4-(4-methylpyrazolo[1,5-a]pyridin-2-yl)-1,4,6,7-tetrahydro-5H-imidazo[4,5-c]pyridin-5-yl)methanone]"
3,1000 to 5000 nM,"COCc1ccc2c(C(=O)N3CCc4[nH]cnc4[C@H]3c3cc4c(C)cccn4n3)cnn2c1 [Example 2436, (S)-(6-(methoxymethyl)pyrazolo[1,5-a]pyridin-3-yl)(4-(4-methylpyrazolo[1,5-a]pyridin-2-yl)-6,7-dihydro-1H-imidazo[4,5-c]pyridin-5(4H)-yl)methanone]"
4,500 to 1000 nM,"c1cc(C2CC2)c2cc([C@@H]3c4nc[nH]c4CCN3c3nnc(C4CC4)o3)nn2c1 [Example 2059, (S)-2-cyclopropyl-5-(4-(4-cyclopropylpyrazolo[1,5-a]pyridin-2-yl)-1,4,6,7-tetrahydro-5H-imidazo[4,5-c]pyridin-5-yl)-1,3,4-oxadiazole]"
5,< 500 nM,"Cn1cc(-c2nnc(C(=O)N3CCc4[nH]cnc4[C@H]3c3cc4c(F)cccn4n3)s2)cn1 [Example 2018, (S)-(4-(4-fluoropyrazolo[1,5-a]pyridin-2-yl)-1,4,6,7-tetrahydro-5H-imidazo[4,5-c]pyridin-5-yl)(5-(1-methyl-1H-pyrazol-4-yl)-1,3,4-thiadiazol-2-yl)methanone]"
6,> 5000 nM,"Cn1cc(-c2nnc(C(=O)N3CCc4[nH]cnc4[C@@H]3c3cc4c(F)cccn4n3)s2)cn1 [Example 2019, (R)-(4-(4-fluoropyrazolo[1,5-a]pyridin-2-yl)-1,4,6,7-tetrahydro-5H-imidazo[4,5-c]pyridin-5-yl)(5-(1-methyl-1H-pyrazol-4-yl)-1,3,4-thiadiazol-2-yl)methanone]"
7,1000 to 5000 nM,"Cn1nc(C2CC2)nc1C(=O)N1CCc2[nH]cnc2[C@H]1c1cc2cccc(C(F)(F)F)n2n1 [Example 2419, (S)-(3-cyclopropyl-1-methyl-1H-1,2,4-triazol-5-yl)(4-(7-(trifluoromethyl)pyrazolo[1,5-a]pyridin-2-yl)-6,7-dihydro-1H-imidazo[4,5-c]pyridin-5(4H)-yl)methanone]"
8,> 5000 nM,"CCc1cccn2nc([C@H]3c4nc[nH]c4CCN3C(=O)c3nnc(-c4ccccn4)o3)cc12 [Example 1894, (R)-(4-(4-ethylpyrazolo[1,5-a]pyridin-2-yl)-1,4,6,7-tetrahydro-5H-imidazo[4,5-c]pyridin-5-yl)(5-(pyridin-2-yl)-1,3,4-oxadiazol-2-yl)methanone]"
9,> 5000 nM,"FC(F)Oc1cccn2nc([C@H]3c4nc[nH]c4CCN3c3ncc(C(F)(F)F)cn3)cc12 [Example 2257, (R)-4-(4-(difluoromethoxy)pyrazolo[1,5-a]pyridin-2-yl)-5-(5-(trifluoromethyl)pyrimidin-2-yl)-4,5,6,7-tetrahydro-1H-imidazo[4,5-c]pyridine]"

# Same assay, conditions: A375 cells expressing human R408W PAH; 24 hrs compound incubation; 13C-Tyrosine by LC-MS; average where tested multiple times; read-out: AC50
row,AC50,Structure (SMILES)
1,500 to 1000 nM,"Cn1cnc(-c2nnc(C(=O)N3CCc4[nH]cnc4[C@H]3c3cc4c(F)cccn4n3)o2)c1 [Example 809, (S)-(4-(4-fluoropyrazolo[1,5-a]pyridin-2-yl)-6,7-dihydro-1H-imidazo[4,5-c]pyridin-5(4H)-yl)(5-(1-methyl-1H-imidazol-4-yl)-1,3,4-oxadiazol-2-yl)methanone]"
2,1000 to 5000 nM,"Cc1cccc(-c2nnc(C(=O)N3CCc4[nH]cnc4[C@@H]3c3cc4cccc(C)n4n3)o2)n1 [Example 1399, (R)-(4-(7-methylpyrazolo[1,5-a]pyridin-2-yl)-6,7-dihydro-1H-imidazo[4,5-c]pyridin-5(4H)-yl)(5-(6-methylpyridin-2-yl)-1,3,4-oxadiazol-2-yl)methanone]"
3,500 to 1000 nM,"COc1cccn2nc([C@@H]3c4nc[nH]c4CCN3C(=O)c3nnc(C(C)(C)C)o3)cc12 [Example 1183, (S)-(5-(tert-butyl)-1,3,4-oxadiazol-2-yl)(4-(4-methoxypyrazolo[1,5-a]pyridin-2-yl)-6,7-dihydro-1H-imidazo[4,5-c]pyridin-5(4H)-yl)methanone]"
4,> 5000 nM,"Cc1nn(C)cc1-c1nnc(C(=O)N2CCc3[nH]cnc3[C@@H]2c2cc3c(C)cccn3n2)o1 [Example 845, (R)-(5-(1,3-dimethyl-1H-pyrazol-4-yl)-1,3,4-oxadiazol-2-yl)(4-(4-methylpyrazolo[1,5-a]pyridin-2-yl)-6,7-dihydro-1H-imidazo[4,5-c]pyridin-5(4H)-yl)methanone]"
5,> 5000 nM,"Cc1cccn2nc([C@H]3c4nc[nH]c4CCN3C(=O)c3nnc(-c4cccnc4)o3)cc12 [Example 895, (R)-(4-(4-methylpyrazolo[1,5-a]pyridin-2-yl)-6,7-dihydro-1H-imidazo[4,5-c]pyridin-5(4H)-yl)(5-(pyridin-3-yl)-1,3,4-oxadiazol-2-yl)methanone]"
6,500 to 1000 nM,"Cn1cc(-c2nnc(C(=O)N3CCc4[nH]cnc4[C@H]3c3cc4ccc(F)cn4n3)o2)cn1 [Example 1100, (S)-(4-(6-fluoropyrazolo[1,5-a]pyridin-2-yl)-6,7-dihydro-1H-imidazo[4,5-c]pyridin-5(4H)-yl)(5-(1-methyl-1H-pyrazol-4-yl)-1,3,4-oxadiazol-2-yl)methanone]"
7,< 500 nM,"Cn1cc(-c2nnc(C(=O)N3CCc4[nH]cnc4[C@H]3c3cc4c(Cl)cccn4n3)o2)cn1 [Example 688, (S)-(4-(4-chloropyrazolo[1,5-a]pyridin-2-yl)-6,7-dihydro-1H-imidazo[4,5-c]pyridin-5(4H)-yl)(5-(1-methyl-1H-pyrazol-4-yl)-1,3,4-oxadiazol-2-yl)methanone]"
8,> 5000 nM,"O=C(c1nnc(-c2ncccc2F)o1)N1CCc2[nH]cnc2[C@@H]1c1cc2c(F)cccn2n1 [Example 790, (R)-(4-(4-fluoropyrazolo[1,5-a]pyridin-2-yl)-6,7-dihydro-1H-imidazo[4,5-c]pyridin-5(4H)-yl)(5-(3-fluoropyridin-2-yl)-1,3,4-oxadiazol-2-yl)methanone]"
9,1000 to 5000 nM,"CC(C)(O)c1nc(C(F)F)c(C(=O)N2CCc3[nH]cnc3[C@@H]2c2cc3cccc(Cl)n3n2)o1 [Example 961, (R)-(4-(7-chloropyrazolo[1,5-a]pyridin-2-yl)-6,7-dihydro-1H-imidazo[4,5-c]pyridin-5(4H)-yl)(4-(difluoromethyl)-2-(2-hydroxypropan-2-yl)oxazol-5-yl)methanone]"
10,> 5000 nM,"Cc1cnn(C)c1-c1nnc(C(=O)N2CCc3[nH]cnc3[C@@H]2c2cc3c(C)cccn3n2)o1 [Example 927, (R)-(5-(1,4-dimethyl-1H-pyrazol-5-yl)-1,3,4-oxadiazol-2-yl)(4-(4-methylpyrazolo[1,5-a]pyridin-2-yl)-6,7-dihydro-1H-imidazo[4,5-c]pyridin-5(4H)-yl)methanone]"
11,1000 to 5000 nM,"CC(C)(C)c1nnc(C(=O)N2CCc3[nH]cnc3[C@@H]2c2cc3cccc(F)n3n2)o1 [Example 1248, (R)-(5-(tert-butyl)-1,3,4-oxadiazol-2-yl)(4-(7-fluoropyrazolo[1,5-a]pyridin-2-yl)-6,7-dihydro-1H-imidazo[4,5-c]pyridin-5(4H)-yl)methanone]"
12,> 5000 nM,"Cn1ccc(-c2nnc(C(=O)N3CCc4[nH]cnc4[C@@H]3c3cc4ccc(F)cn4n3)o2)n1 [Example 1103, (R)-(4-(6-fluoropyrazolo[1,5-a]pyridin-2-yl)-6,7-dihydro-1H-imidazo[4,5-c]pyridin-5(4H)-yl)(5-(1-methyl-1H-pyrazol-3-yl)-1,3,4-oxadiazol-2-yl)methanone]"
13,< 500 nM,"Cn1cc(C(=O)N2CCc3[nH]cnc3[C@H]2c2cc3ccccn3n2)c(Cl)n1 [Example 665, (S)-(3-chloro-1-methyl-1H-pyrazol-4-yl)(4-(pyrazolo[1,5-a]pyridin-2-yl)-6,7-dihydro-1H-imidazo[4,5-c]pyridin-5(4H)-yl)methanone]"
14,500 to 1000 nM,"Cc1cnn(C)c1-c1nnc(C(=O)N2CCc3[nH]cnc3[C@H]2c2cc3cccc(C(F)F)n3n2)o1 [Example 1584, (S)-(4-(7-(difluoromethyl)pyrazolo[1,5-a]pyridin-2-yl)-6,7-dihydro-1H-imidazo[4,5-c]pyridin-5(4H)-yl)(5-(1,4-dimethyl-1H-pyrazol-5-yl)-1,3,4-oxadiazol-2-yl)methanone]"

# Reference: patent US20230365592A1 (Agios Pharmaceuticals, Inc., priority 2022, published 2023)
